Measurements: patent US12122761B2, “2-azaspiro[3.4]octane derivatives as M4 agonists” (NOVARTIS AG, priority 2019, dated 2024)

Tests used:
[1] = target: T1, human cloned CHRM4 receptor (M4_CHO cells) (Homo sapiens, UniProt P08173); test: CHRM4 Ca++ Flux Assay (agonist mode, FDSS 7000EX); assay type: cell-based; conditions: for M4 FDSS PA: Percent Activity; for EC50: geometric mean if tested more than once, read-out: M4 FDSS EC50
T1 construct: expressed in transfected cells; host or cells: CHO-K1
T1 sequence (P08173 1-479): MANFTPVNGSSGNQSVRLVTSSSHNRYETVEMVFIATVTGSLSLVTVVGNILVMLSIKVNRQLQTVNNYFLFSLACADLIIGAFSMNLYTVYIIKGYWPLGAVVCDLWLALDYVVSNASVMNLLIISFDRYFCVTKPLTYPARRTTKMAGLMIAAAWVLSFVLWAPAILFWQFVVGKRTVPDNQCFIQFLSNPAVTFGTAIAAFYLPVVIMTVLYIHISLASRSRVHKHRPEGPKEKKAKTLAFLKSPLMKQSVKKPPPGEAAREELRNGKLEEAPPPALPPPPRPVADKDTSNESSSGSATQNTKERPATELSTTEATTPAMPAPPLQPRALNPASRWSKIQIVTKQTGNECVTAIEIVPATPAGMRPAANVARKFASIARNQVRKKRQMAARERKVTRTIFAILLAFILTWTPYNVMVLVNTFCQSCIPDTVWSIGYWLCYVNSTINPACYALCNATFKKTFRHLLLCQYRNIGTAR
Experimental: (§1) The above examples were characterized by measuring the intracellular mobilization of Ca++ ions caused by signaling events mediated by the receptor. The Intra-cellular Calcium flux levels were captured by the highly sensitive Ca++ indicator, Calcium Assay Kit (BD Biosciences, Catalog Number 640178). The fluorescent activity from all receptors were monitored by the fluorescent imager, FDSS 7000EX (Hamamatsu) over a span of 3 minutes.
CHO-K1 cells stably expressing the human cloned CHRM4 receptor (M4_CHO cells) were grown and maintained in a monolayer culture with F12/HAM (Life Technologies) supplemented with 10% Fetal Bovine Serum, 1× Pen-Strep, and 0.4 mg/mL Geneticin in a humidified atmosphere (5% CO2) at 37° C. The cultures were grown to 80-90% confluency in T150 flasks (Corning) and washed with 1×DPBS then lifted with 0.05% Trypsin (Life Technologies). The cells were harvested in growth media then spun (1K rpm, 3 minutes) and cryopreserved using Recovery Cell Culture Freezing Media (Gibco Technologies). Cells were stored in liquid nitrogen and thawed a day before the assay.
Prior to the day of the assay, stable M4_CHO cells were thawed and plated on 384 well black walled clear bottom TC treated plates (Greiner Cat #781091) at 12K cells/well using F12/HAM Media supplemented with 10% FBS (Life Technologies) and kept overnight in a humidified atmosphere (5% CO2) at 37° C. The next day, cells were loaded with […] Ca^++ dye (BD Biosciences) using Loading Buffer (HBSS +Ca/+Mg, 20 mM HEPES, 2.5 mM Probenecid) and placed back in cell incubator for a minimum of 1 hour. After incubation, the dye was replaced with 45 μL Assay Buffer (HBSS −Ca/−Mg, 20 mM HEPES, 2.5 mM Probenecid) supplemented with 20 μM ATP (Sigma Aldrich) and kept at room temperature in the dark for 60 minutes before running on a cell imager. The FDSS 7000EX (Hamamatsu) was used to capture Ca^++ traces for a span of 3 minutes from cells treated with 11 point dose of compound in triplicate in order to generate dose response curves in agonist mode. All compounds were serially diluted in DMSO then prepared in Assay Buffer for Ca^++ flux studies. The dose response curves were generated from the average of triplicate wells obtained from each data point and used a non-linear regression of four parameter dose response algorithm. The Percent Activity (PA) was measured to EC100 of Carbachol.

[2] = target: T2, human cloned CHRM3 receptor (M3_CHO cells) (Homo sapiens, UniProt P20309); test: CHRM3 Ca++ Flux Assay (agonist mode, FDSS 7000EX); assay type: cell-based; conditions: for M3 FDSS PA: Percent Activity measured to EC100 of Carbachol; for EC50: agonist mode, geometric mean if tested more than once, read-out: M3 FDSS EC50
T2 construct: expressed in transfected cells; host or cells: CHO-K1
Experimental: as §1
CHO-K1 cells stably expressing the human cloned CHRM3 receptor (M3_CHO cells) were grown and maintained in a monolayer culture with F12/HAM (Life Technologies) supplemented with 10% Fetal Bovine Serum, 1× Pen-Strep, and 0.4 mg/mL Geneticin in a humidified atmosphere (5% CO2) at 37° C. The cultures were grown to 80-9 0% confluency in T150 flasks (Corning) and washed with 1×DPBS and lifted with 0.05% Trypsin (Life Technologies). The cells were then spun (1K rpm, 3 minutes) and frozen using Recovery Cell Culture Freezing Media (Gibco Technologies). Cells were stored in liquid nitrogen and thawed a day before the assay. A similar procedure was used for cells stably expressing the human cloned CHRM5 receptor (M5_CHO).
Prior to the day of the assay, stable M3_CHO or M5_CHO cells were thawed and plated on Greiner 384 well black TC treated plates at 12K cells/well in F12/DMEM supplemented with 10% FBS (Hyclone) and kept overnight in a humidified atmosphere (5% CO2) at 37° C. The next day, cells were loaded with Ca^++ dye (BD Biosciences) using Loading Buffer (HBSS +Ca/+Mg, 20 mM HEPES, 2.5 mM Probenecid) and placed back in cell incubator for a minimum of 1 hour. After incubation, the dye was replaced with Assay Buffer (HBSS −Ca/−Mg, 20 mM HEPES, 2.5 mM Probenecid) and kept at room temperature in the dark before running on cell imager. The FDSS 7000EX (Hamamatsu) was used to acquire Ca^++ traces from cells treated with 11 point dose response of compounds in triplicate in order to generate dose response curves in agonist mode. All compounds were serially diluted in DMSO then prepared in Assay Buffer for Ca^++ flux studies. The dose response curves were generated from the average of triplicate wells obtained from each data point and used a non-linear regression of four parameter dose response algorithm. The Percent Activity (PA) was measured to EC100 of Carbachol.

T2 sequence (P20309 whole entry): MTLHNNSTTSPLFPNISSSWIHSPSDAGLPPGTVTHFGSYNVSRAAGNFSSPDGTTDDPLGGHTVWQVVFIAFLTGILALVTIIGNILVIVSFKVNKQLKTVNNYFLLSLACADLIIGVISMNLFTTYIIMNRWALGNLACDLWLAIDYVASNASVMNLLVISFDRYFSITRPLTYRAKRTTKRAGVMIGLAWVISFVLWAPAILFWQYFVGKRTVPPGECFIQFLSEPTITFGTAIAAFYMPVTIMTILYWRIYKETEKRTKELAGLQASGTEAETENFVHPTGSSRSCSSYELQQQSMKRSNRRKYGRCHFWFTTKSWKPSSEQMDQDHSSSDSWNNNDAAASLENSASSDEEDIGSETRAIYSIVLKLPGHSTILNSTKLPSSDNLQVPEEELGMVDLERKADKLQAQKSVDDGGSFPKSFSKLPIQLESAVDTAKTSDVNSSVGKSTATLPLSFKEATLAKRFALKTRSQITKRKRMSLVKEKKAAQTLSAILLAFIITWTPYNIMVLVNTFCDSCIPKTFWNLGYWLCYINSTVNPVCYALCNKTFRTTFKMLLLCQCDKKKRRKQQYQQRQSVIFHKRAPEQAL

| Compound | M4 FDSS PA [1] | EC50 [1] | M3 FDSS PA [2] | EC50 [2] |
| --- | --- | --- | --- | --- |
| O=C1CCCN1CCOc1ccccc1C1CCN([C@@H]2CCC3(C2)CN(C(=O)C2(F)CC2)C3)CC1.O=CO (single isomer, unassigned) [Example 7P, (R)-1-(2-(2-(1-(2-(1-fluorocyclopropane-1-carbonyl)-2-azaspiro[3.4]octan-6-yl)piperidin-4-yl)phenoxy)ethyl)pyrrolidin-2-one formate salt or (S)-1-(2-(2-(1-(2-(1-fluorocyclopropane-1-carbonyl)-2-azaspiro[3.4]octan-6-yl)piperidin-4-yl)phenoxy)ethyl)pyrrolidin-2-one formate salt] | 49% | 1 nM | 0% | > 25 µM |
| O=C(N1CC2(CC[C@@H](N3CCC(c4ccccc4OCC4CCOCC4)CC3)C2)C1)C1(F)CC1 (single isomer, unassigned) [Example 7Q, (R)-(1-fluorocyclopropyl)(6-(4-(2-((tetrahydro-2H-pyran-4-yl)methoxy)phenyl)piperidin-1-yl)-2-azaspiro[3.4]octan-2-yl)methanone or (S)-(1-fluorocyclopropyl)(6-(4-(2-((tetrahydro-2H-pyran-4-yl)methoxy)phenyl)piperidin-1-yl)-2-azaspiro[3.4]octan-2-yl)methanone] | 48% | 3 nM | 0% | > 25 µM |
| Cc1nnc(COc2ccccc2C2CCN([C@@H]3CCC4(C3)CN(C(=O)C3(F)CC3)C4)CC2)s1 (single isomer, unassigned) [Example 7R, (R)-(1-fluorocyclopropyl)(6-(4-(2-((5-methyl-1,3,4-thiadiazol-2-yl)methoxy)phenyl)piperidin-1-yl)-2-azaspiro[3.4]octan-2-yl)methanone or (S)-(1-fluorocyclopropyl)(6-(4-(2-((5-methyl-1,3,4-thiadiazol-2-yl)methoxy)phenyl)piperidin-1-yl)-2-azaspiro[3.4]octan-2-yl)methanone] | 36% | 62 nM | 0% | > 25 µM |
| CCOc1ccccc1C1CCN([C@@H]2CCC3(C2)CN(C(=O)C2(F)CC2)C3)CC1 (single isomer, unassigned) [Example 7S, (R)-(6-(4-(2-ethoxyphenyl)piperidin-1-yl)-2-azaspiro[3.4]octan-2-yl)(1-fluorocyclopropyl)methanone or (S)-(6-(4-(2-ethoxyphenyl)piperidin-1-yl)-2-azaspiro[3.4]octan-2-yl)(1-fluorocyclopropyl)methanone] | 26% | 2650 nM | 0% | > 25 µM |
| O=C(N1CC2(CC[C@@H](N3CCC(c4ccccc4OCC4CC4)CC3)C2)C1)C1(F)CC1 (single isomer, unassigned) [Example 7T, (R)-(6-(4-(2-(cyclopropylmethoxy)phenyl)piperidin-1-yl)-2-azaspiro[3.4]octan-2-yl)(1-fluorocyclopropyl)methanone or (R)-(6-(4-(2-(cyclopropylmethoxy)phenyl)piperidin-1-yl)-2-azaspiro[3.4]octan-2-yl)(1-fluorocyclopropyl)methanone] | 5% | 12100 nM | 0% | > 25 µM |
| Cc1noc(C)c1COc1ccccc1C1CCN([C@@H]2CCC3(C2)CN(C(=O)C2(F)CC2)C3)CC1 (single isomer, unassigned) [Example 7U, (R)-(6-(4-(2-((3,5-dimethylisoxazol-4-yl)methoxy)phenyl)piperidin-1-yl)-2-azaspiro[3.4]octan-2-yl)(1-fluorocyclopropyl)methanone or (S)-(6-(4-(2-((3,5-dimethylisoxazol-4-yl)methoxy)phenyl)piperidin-1-yl)-2-azaspiro[3.4]octan-2-yl)(1-fluorocyclopropyl)methanone] | 1% | > 25000 nM | 0% | > 25 µM |
| Cc1ncc(COc2ccccc2C2CCN([C@@H]3CCC4(C3)CN(C(=O)C3(F)CC3)C4)CC2)o1 (single isomer, unassigned) [Example 7V, (R)-(1-fluorocyclopropyl)(6-(4-(2-((2-methyloxazol-5-yl)methoxy)phenyl)piperidin-1-yl)-2-azaspiro[3.4]octan-2-yl)methanone or (S)-(1-fluorocyclopropyl)(6-(4-(2-((2-methyloxazol-5-yl)methoxy)phenyl)piperidin-1-yl)-2-azaspiro[3.4]octan-2-yl)methanone] | 23% | 353 nM | 0% | > 25 µM |
| Cc1nnc(COc2ccccc2C2CCN([C@@H]3CCC4(C3)CN(C(=O)C3(F)CC3)C4)CC2)o1 (single isomer, unassigned) [Example 7W, (R)-(1-fluorocyclopropyl)(6-(4-(2-((5-methyl-1,3,4-oxadiazol-2-yl)methoxy)phenyl)piperidin-1-yl)-2-azaspiro[3.4]octan-2-yl)methanone or (S)-(1-fluorocyclopropyl)(6-(4-(2-((5-methyl-1,3,4-oxadiazol-2-yl)methoxy)phenyl)piperidin-1-yl)-2-azaspiro[3.4]octan-2-yl)methanone] | 67% | < 0.4 nM | 0% | > 25 µM |
| Cc1nc(COc2ccccc2C2CCN([C@@H]3CCC4(C3)CN(C(=O)C3(F)CC3)C4)CC2)no1 (single isomer, unassigned) [Example 7X, (R)-(1-fluorocyclopropyl)(6-(4-(2-((5-methyl-1,2,4-oxadiazol-3-yl)methoxy)phenyl)piperidin-1-yl)-2-azaspiro[3.4]octan-2-yl)methanone or (S)-(1-fluorocyclopropyl)(6-(4-(2-((5-methyl-1,2,4-oxadiazol-3-yl)methoxy)phenyl)piperidin-1-yl)-2-azaspiro[3.4]octan-2-yl)methanone] | 66% | < 0.4 nM | 0% | > 25 µM |
